Patent US10174083B2, “Aza-amino acid collagen compounds” (The Trustees of the University of Pennsylvania, priority 2016, dated 2019)

Experiment: Triple helix self-assembly by CD spectroscopy
Type: physicochemical
Protocol: Circular dichroism (CD) spectroscopy was used to evaluate self-assembly of the triple helix for each of our collagen model peptides. […] The data from CD thermal denaturation experiments were fitted to a two-state model, as previously described.
Purified peptides were incubated in PBS buffer for at least 24 hours. […] The data from CD thermal denaturation experiments were fitted to a two-state model as previously described.^12,13 The melting temperatures (Tm), at which 50% of the triple helix unfolds, are listed next to the peptides in FIG. 11.
Resulting peptide 5 was purified by HPLC and incubated at a concentration of 0.2 mM in PBS buffer (pH 7) for 24 h.
Multiple aza-Proline residues: Finally, we determined the number of stereodynamic center (i.e., AzProHypGly trimer) that can be incorporated into a collagen model peptide without perturbing the triple-helix formation.

triple helix formation / self-assembly: does not
Substance: (GPO)4
